The values below come from patent US20230348376A1 (TEIJIN PHARMA LIMITED, priority 2020, published 2023).

Each structure is given as a SMILES string.

In assay [1] the test system is rat oligodendrocyte progenitor cells. As to the kind of experiment: Promotive activity of rat oligodendrocyte progenitor cell differentiation-1 (MBP gene expression, mRNA). The assay is classed as cell-based. Conditions: Rattus norvegicus, Oligodendrocyte progenitor cell, 96 h, read-out: promotive activity at T3 base (MBP gene expression; DMSO 0%, T3 100%), 4 days, MBP/β actin mRNA. As to the method:
Regarding vitamin D derivatives, which was confirmed to act on the vitamin D receptor (VDR) in Example 352, the promotive activity of oligodendrocyte progenitor cell (OPC) differentiation was evaluated by MBP gene expression (mRNA).
A forebrain obtained from SD rat (Charles River Japan, 1 day old) was crushed with 70 μm Cell Strainer (Falcon #352350), and a cell suspension was prepared by collecting the cells in oligodendrocyte progenitor cell separation medium (20% FBS/2 mM Glutamax (Gibco #35050-061)/i mM sodium pyruvate (Gibco #11360-070)/1% penicillin-streptomycin (Invitrogen #15140-122)/DMEM (Gibco #11960-044)). The cell suspension was seeded in a poly-D-lysine coated T75 flask (Thermo Fisher Scientific #132704) and cultured for about 2 weeks. After culturing, the flask was shaken using a rotary shaker ([…] #WB-101SRC) for about 1 hour (37° C., 100 rpm), and the supernatant was discarded to remove microglia. Subsequently, oligodendrocyte progenitor cell separation medium was added to the flask, and the mixture was similarly shaken for about 22 hours (37° C., 200 rpm), and the supernatant was collected to prepare oligodendrocyte progenitor cells.
The oligodendrocyte progenitor cell prepared was suspended in a differentiation medium (2% B27 (Thermo Fisher Scientific, Inc. #17504-044)/1% penicillin-streptomycin (Invitrogen Corporation #15140-122)/10 ng/mL CNTF (PeproTech Inc. #AF-450-13)/DMEM (Gibco #11960-044)), and seeded on a 96-well plate coated with poly-L-ornithine (FUJIFILM Wako Pure Chemical Corporation #163-27421) under the condition of 0.65×10^4 cells/well, and on a 384-well plate under the condition of 2×10^3 cells/well using an automatic dispensing system (LABCYTE #Echo555). […] After culturing, the cells seeded on the 96-well plate were subjected to immunostaining against MBP using following methods: fixation (4% paraformaldehyde solution, 30 minutes, room temperature), PBS washing, membrane permeation treatment (0.1% Trion X-100 (SIGMA #X100-100ML)/PBS, 3 minutes, room temperature), blocking (3% BSA (SIGMA #A9647-10G)/PBS, 1 hour, room temperature), primary antibody reaction (MBP antibody (abcam plc #ab40390), 2.5 μg/mL, 4° C., 24 hours), PBS washing, secondary antibody reaction (Alexa488 anti-rabbit IgG (Thermo Fisher Scientific, Inc. #A-11034), 5 μg/mL, room temperature, 1 hour), PBS washing, and nuclear staining (Hoechst33342 (DOJINDO #NU043), 10 μg/mL, room temperature, 5 minutes). Subsequently, images of each well were acquired using a fluorescence microscope (KEYENCE CORPORATION #BZ-X800), the number of MBP-positive cells and Hoechst 33342-positive cells were measured using an image analysis application (KEYENCE CORPORATION #BZ-X800 Analyzer), and then the ratio (the number of MBP-positive cells/the number of Hoechst33342-positive cells) was calculated. The cells seeded on the 384-well plate were subjected to real-time PCR using Cells-to-CT 1-Step TaqMan Kit (Thermo Fisher Scientific, Inc. #A25602) and QuantStudio 12K Flex Real-Time PCR System (Thermo Fisher Scientific, Inc. #4472380). The experiment was performed in accordance with the protocol attached to the kit. MBP (Thermo Fisher Scientific, Inc. #Assay ID Rn00690616_ml) and β actin (Thermo Fisher Scientific, Inc. #Assay ID Rn00667869_ml) were used as primers, and the expression levels of each were measured and the ratio (MBP/β actin) was calculated.

The next assay has as its target T1, human VDR (Homo sapiens, UniProt P11473).
T1 sequence (P11473 1-427): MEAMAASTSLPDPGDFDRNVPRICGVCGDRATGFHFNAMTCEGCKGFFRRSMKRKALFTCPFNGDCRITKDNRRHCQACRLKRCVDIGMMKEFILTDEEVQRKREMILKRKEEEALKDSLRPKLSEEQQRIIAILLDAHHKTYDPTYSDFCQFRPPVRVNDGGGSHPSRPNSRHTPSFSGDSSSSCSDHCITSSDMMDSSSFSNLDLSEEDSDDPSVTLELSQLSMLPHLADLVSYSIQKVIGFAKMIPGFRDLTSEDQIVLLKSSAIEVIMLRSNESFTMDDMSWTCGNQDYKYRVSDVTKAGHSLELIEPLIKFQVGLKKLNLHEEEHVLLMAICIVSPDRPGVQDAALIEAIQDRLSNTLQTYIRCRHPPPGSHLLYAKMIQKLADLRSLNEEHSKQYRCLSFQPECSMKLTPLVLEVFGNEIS
T1 sequence (P19793 1-462 partner): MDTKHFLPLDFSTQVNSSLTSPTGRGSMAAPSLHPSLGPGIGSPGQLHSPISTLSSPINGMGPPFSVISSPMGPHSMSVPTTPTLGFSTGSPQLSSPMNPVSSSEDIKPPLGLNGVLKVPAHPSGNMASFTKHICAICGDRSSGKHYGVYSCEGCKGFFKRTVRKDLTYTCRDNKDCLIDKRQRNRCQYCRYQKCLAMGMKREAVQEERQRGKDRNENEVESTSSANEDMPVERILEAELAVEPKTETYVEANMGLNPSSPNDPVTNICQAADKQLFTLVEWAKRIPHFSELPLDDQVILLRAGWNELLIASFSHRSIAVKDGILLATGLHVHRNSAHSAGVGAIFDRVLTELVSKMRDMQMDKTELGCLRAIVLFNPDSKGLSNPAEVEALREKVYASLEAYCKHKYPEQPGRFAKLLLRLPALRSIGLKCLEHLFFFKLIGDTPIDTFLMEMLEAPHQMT
As to the kind of experiment: Evaluation of VDR transcription activity in human osteoblasts (HOS cells), luciferase reporter. Conditions: Activity (EC50, VDR transcription activity), HOS cells transfected with human VDR, human RXRα and DR3 luciferase reporter; 21 hours.

What is called EC50 is the concentration giving half of the maximal effect.

Consider `C=C1/C(=C\C=C2/CCC[C@]3(C)[C@@H]([C@@H](C)CN4CCOCC4)CC[C@@H]23)C[C@@H](O)[C@H](C)[C@@H]1O` [Compound D003, (1R,2S,3S,Z)-2-methyl-5-(2-((1R,3aS,7aR,E)-7a-methyl-1-((R)-1-morpholinopropan-2-yl)octahydro-4H-inden-4-ylidene)ethylidene)-4-methylenecyclohexane-1,3-diol], for which, in assay [1], the activation at 1 µM was not below 20%. The concentration giving a half-maximal response (EC50) at human VDR lay within 0.01 to 0.1 µM.

`C[C@H](CCN1CCOC2(CC2)C1)[C@H]1CC[C@H]2/C(=C/C=C3C[C@@H](O)C[C@H](O)C3)CCC[C@]12C` [Compound D030, (1R,3R)-5-(2-((1R,3aS,7aR,E)-1-((R)-4-(4-oxa-7-azaspiro[2.5]octan-7-yl)butan-2-yl)-7a-methyloctahydro-4H-inden-4-ylidene)ethylidene)cyclohexane-1,3-diol]: the activation at 1 µM in assay [1] was not below 20%. This molecule registered an EC50 at human VDR of 0.001 to 0.01 µM.

For `C=C1[C@H](O)CC(=C/C=C2\CCC[C@]3(C)[C@@H]([C@H](C)CN4CC[C@H](CCC(F)F)C4)CC[C@@H]23)C[C@H]1O` [Compound B061, (1R,3R)-5-(2-((1R,3aS,7aR,E)-1-((S)-1-((S)-3-(3,3-difluoropropyl)pyrrolidin-1-yl)propan-2-yl)-7a-methyloctahydro-4H-inden-4-ylidene)ethylidene)-2-methylenecyclohexane-1,3-diol], in assay [1], the activation at 1 µM was not below 20%. The molecule further showed a concentration giving a half-maximal response (EC50) on human VDR of 0.001 to 0.01 µM.

Consider `C=C1[C@H](O)CC(=C/C=C2\CCC[C@]3(C)[C@@H]([C@H](C)CN4C[C@@H](C)OC[C@H]4C)CC[C@@H]23)C[C@H]1O` [Compound D017, (1R,3R)-5-(2-((1R,3aS,7aR,E)-1-((S)-1-((2R,5R)-2,5-dimethylmorpholino)propan-2-yl)-7a-methyloctahydro-4H-inden-4-ylidene)ethylidene)-2-methylenecyclohexane-1,3-diol], for which the activation at 1 µM in assay [1] was not below 20%. The molecule further yielded an EC50 at human VDR of 0.01 to 0.1 µM.

For `C=C1C(O)CC(=C/C=C2\CCC[C@]3(C)[C@@H]([C@H](C)CN4CC[C@H](OC(F)(F)F)C4)CC[C@@H]23)C[C@H]1O` (stereo in doubt) [Compound B067, (1R,3S)-5-(2-((1R,3aS,7aR,E)-7a-methyl-1-((S)-1-((S)-3-(trifluoromethoxy)pyrrolidin-1-yl)propan-2-yl)octahydro-4H-inden-4-ylidene)ethylidene)-2-methylenecyclohexane-1,3-diol], the activation at 1 µM in assay [1] is not below 20%. The molecule also had an EC50 at human VDR of 0.001 to 0.01 µM.

In the case of `C[C@@H]1CCN(C[C@@H](C)[C@H]2CC[C@H]3/C(=C/C=C4C[C@@H](O)C[C@H](O)C4)CCC[C@]23C)C1` [Compound B004, (1R,3R)-5-(2-((1R,3aS,7aR,E)-7a-methyl-1-((S)-1-((R)-3-methylpyrrolidin-1-yl)propan-2-yl)octahydro-4H-inden-4-ylidene)ethylidene)cyclohexane-1,3-diol], in assay [1], the activation at 1 µM is not below 20%. Further, the EC50 at human VDR lay in the range of 0.001 to 0.01 µM.

As for `C=C1/C(=C\C=C2/CCC[C@]3(C)[C@@H]([C@H](C)CN4CCC[C@H](C(C)(F)F)C4)CC[C@@H]23)C[C@@H](O)C[C@@H]1O` [Compound C052, (1R,3S,Z)-5-(2-((1R,3aS,7aR,E)-1-((S)-1-((S)-3-(1,1-difluoroethyl)piperidin-1-yl)propan-2-yl)-7a-methyloctahydro-4H-inden-4-ylidene)ethylidene)-4-methylenecyclohexane-1,3-diol], the activation at 1 µM in assay [1] was not below 20%. This molecule displayed an EC50 on human VDR of 0.01 to 0.1 µM.

For `C[C@H](CN1CC[C@@H](OC(F)(F)F)C1)[C@H]1CC[C@H]2/C(=C/C=C3CC(O)C[C@H](O)C3)CCC[C@]12C` (stereo in doubt) [Compound B070, (1R,3S)-5-(2-((1R,3aS,7aR,E)-7a-methyl-1-((S)-1-((R)-3-(trifluoromethoxy)pyrrolidin-1-yl)propan-2-yl)octahydro-4H-inden-4-ylidene)ethylidene)cyclohexane-1,3-diol], the activation at 1 µM in assay [1] was not below 20%. On human VDR, this molecule had a 50% effective concentration (EC50) of 0.01 to 0.1 µM.

`C=C1[C@H](O)CC(=C/C=C2\CCC[C@]3(C)[C@@H]([C@H](C)CN4CCOC5(CCCC5)C4)CC[C@@H]23)C[C@H]1O` [Compound D012, (1R,3R)-5-(2-((1R,3aS,7aR,E)-1-((S)-1-(6-oxa-9-azaspiro[4.5]decan-9-yl)propan-2-yl)-7a-methyloctahydro-4H-inden-4-ylidene)ethylidene)-2-methylenecyclohexane-1,3-diol]: the activation at 1 µM in assay [1] was not below 20%. At human VDR, this molecule came in with an EC50 of 0.001 to 0.01 µM.

On to `C=C1[C@H](O)CC(=C/C=C2\CCC[C@]3(C)[C@@H]([C@H](C)CCN4CCO[C@@H](C)C4)CC[C@@H]23)C[C@H]1O` [Compound D025, (1R,3R)-5-(2-((1R,3aS,7aR,E)-7a-methyl-1-((R)-4-((S)-2-methylmorpholino)butan-2-yl)octahydro-4H-inden-4-ylidene)ethylidene)-2-methylenecyclohexane-1,3-diol], for which the activation at 1 µM in assay [1] is not below 20%. On human VDR, the EC50 was in the range of 0.01 to 0.1 µM.

For `C[C@H](CCN1CCO[C@@H](C)C1)[C@H]1CC[C@H]2/C(=C/C=C3C[C@@H](O)C[C@H](O)C3)CCC[C@]12C` [Compound D041, (1R,3R)-5-(2-((1R,3aS,7aR,E)-7a-methyl-1-((R)-4-((S)-2-methylmorpholino)butan-2-yl)octahydro-4H-inden-4-ylidene)ethylidene)cyclohexane-1,3-diol], the activation at 1 µM in assay [1] was not below 20%. The 50% effective concentration (EC50) at human VDR lay within 0.1 to 1 µM.

For the molecule `C=C1/C(=C\C=C2/CCC[C@]3(C)[C@@H]([C@H](C)CN4CC[C@H](OC(F)F)C4)CC[C@@H]23)C[C@@H](O)C[C@@H]1O` [Compound B047, (1R,3S,Z)-5-(2-((1R,3aS,7aR,E)-1-((S)-1-((S)-3-(difluoromethoxy)pyrrolidin-1-yl)propan-2-yl)-7a-methyloctahydro-4H-inden-4-ylidene)ethylidene)-4-methylenecyclohexane-1,3-diol], in assay [1], the activation at 1 µM is not below 20%. Besides, on human VDR, the half-maximal effective concentration (EC50) fell in the range of 0.01 to 0.1 µM.
